“Also recorded” adds a separate entry of the source.
Columns and labels:
vitellogenin [1] = tested on: vitellogenin; parameters: method as in Liu et al. (2007); details: primary cultured tilapia hepatocytes; ref Liu et al. (2007); cited from earlier work
vitellogenin [2] = tested on: vitellogenin; parameters: method as in Ishibashi et al. 2008; details: male medaka fish; ref Ishibashi et al. 2008; cited from earlier work
MCF-7BUS cells = assay: E-screen assay (MCF-7BUS cell proliferation, WST-1); format: cell-based, Human
Description: Cell culture. Human MCF-7BUS breast adenocarcinoma cells and MVLN cells were cultured in 100-mm culture dishes in a humidified atmosphere of 5% CO2 at 37°C. Cells were maintained in Dulbecco’s modified Eagle’s medium (DMEM)/F-12 (Hyclone, Logan, UT, USA) containing 10% fetal bovine serum, 100 U/mL streptomycin-penicillin, 2 mM L-glutamine, and 1% insulin-transferrin-selenium supplement (all from Gibco, Grand Island, NY, USA).
E-screen assay. MCF-7BUS cells were kindly provided by A.M. Soto and C. Sonnenschein (Tufts University School of Medicine, Boston, MA, USA). In response to ERα agonists, the mitotic effect leads to the proliferation of MCF-7BUS cells. […] Cells were trypsinized and plated into the interior 60 wells of 96-well plates at the density of 3,000 cells/well. Before each experiment, cells were starved in steroid-free (SF) medium for 48 hr to minimize the basal hormonal activity during assays. SF medium consisted of phenol red–free DMEM/F-12 (Hyclone) supplemented with 5% dextran-charcoal-treated fetal bovine serum (Hyclone), 100 U/mL streptomycin-penicillin, and 2 mM L-glutamine. […] We used a WST-1 proliferation kit (Roche Diagnostics, Mannheim, Germany) to assess proliferation after 6 days of exposure according to the kit instructions. The WST-1 assay is based on the enzymatic cleavage of the tetrazolium salt WST-1 to formazan by cellular mitochondrial dehydrogenases present in viable cells. The absorbance of the WST-1 solution was detected by a microplate reader (Varioskan Flash, Thermo Fisher Scientific, Waltham, MA, USA) at 450 nm, with the reference wave length at 690 nm. The cell proliferation effect was calculated from the solvent control (0.1% ethanol)-corrected absorbance and expressed as the percentage of maximal absorbance of the positive control. Three replicates were used in each experiment.
The concentration–response analyses were performed with four-parameter logistic curve regression analysis according to the following formula:
y = minimum + (maximum – minimum) ÷ [1 + (x/EC50)^Hill slope], [1]
where y is the response value, x is the log concentration of the test compound, and EC50 is the concentration that induces half of the maximum proliferation effect or luciferase activity.
EC50 values were calculated from this nonlinear regression model. EC20 were calculated as […]

[3] = tested on: gap junction intercellular communication; parameters: method as in Hu et al. 2002; Upham et al. 1998; details: ref Hu et al. 2002; Upham et al. 1998; cited from earlier work

Structure (SMILES)	Vitellogenin expression (vitellogenin [1])	Vitellogenin induction (vitellogenin [2])	E-screen Maximum induction (%) (MCF-7BUS cells; percentage of the maximum proliferation effect of tested compound to that of E2, 6 days exposure)	Proliferation / estrogenic effect in the E-screen assay (in words) (MCF-7BUS cells; within the tested concentration ranges)	Inhibition of gap junction intercellular communication [3]
O=C(O)C(F)(F)C(F)(F)C(F)(F)C(F)(F)C(F)(F)C(F)(F)C(F)(F)F [PFOA, perfluorooctanoic acid, reference compound]	induced	did not	NDd (The maximum relative proliferation effect was < 7%)	negative results; also recorded: did not show proliferation effects	
O=S(=O)(O)C(F)(F)C(F)(F)C(F)(F)C(F)(F)C(F)(F)C(F)(F)C(F)(F)C(F)(F)F [PFOS, perfluorooctane sulfonate]	induced	did not			significantly inhibits
O=S(=O)(O)C(F)(F)C(F)(F)C(F)(F)C(F)(F)F [perfluorobutanesulfonate]					did not show effects
O=S(=O)(O)C(F)(F)C(F)(F)C(F)(F)C(F)(F)C(F)(F)C(F)(F)F [perfluorohexanesulfonate]					did not show effects

Reference: publication PMC3261944, “The in Vitro Estrogenic Activities of Polyfluorinated Iodine Alkanes” (Environmental Health Perspectives, 2011)
